Entries after “also recorded” stand apart in the source; their conditions may differ.
Legend:
AcP1(126-148)OH = experiment: Competition ELISA, antiserum affinity for P1 peptide; assay type: binding, Pseudomonas aeruginosa; details: for cross-reactivity of the antiserum with P1: antiserum raised to the named peptide
AcPAO(128-144)OH [1] = target: AcPAO(128-144)OH (Pseudomonas aeruginosa, UniProt P04739); assay type: binding; details: for cross-reactivity of the antiserum with PAO: antiserum raised to the named peptide
AcPAK(128-144)OH = AcPAK(128-144)OH (Pseudomonas aeruginosa, UniProt P02973); assay type: binding
[2] = test system: Pseudomonas aeruginosa agarose beads; experiment: Active intratracheal model, CF mice; assay type: in vivo; details: 10 days post i.t. challenge
KB7 wild-type = experiment: Active immunization with peptide, mice, KB7 wild-type challenge; assay type: in vivo, Pseudomonas aeruginosa; details: immunized animals (FIG. 6)
Description: (§1) A.BY/SnJ mice were actively immunized at week 0 with 40-50 μg of peptide-tetanus toxoid conjugate mixed with 100 μg of Adjuvax as adjuvant in 50 μl of 10 mM PBS at pH 7.2. Control mice were given 50 μ of 10 mM PBS at pH 7.2 containing 100 μg of Adjuvax. […] Each test group and the control group consisted of ten animals. The effectiveness of the vaccine was determined by the survival rate of the test animals up to 48 hours.

AcKB7(128-144)OH = experiment: Competition ELISA, antiserum affinity for KB7 peptide; assay type: binding, Pseudomonas aeruginosa; details: for cross-reactivity of the antiserum with KB7: antiserum raised to the named peptide
P1 wild-type = experiment: Active immunization with peptide, mice, P1 wild-type challenge; assay type: in vivo, Pseudomonas aeruginosa; details: immunized animals (FIGS. 4, 5)
Description: as §1

[3] = test system: Pseudomonas aeruginosa strain PAO; details: in vivo
AcPAO(128-144)OH [4] = assay type: binding, Pseudomonas aeruginosa; details: cross-reactivity of an antiserum: affinity for native PAK over native PAO peptide, 1 = same affinity
[5] = test system: peptide antigen used to raise the antiserum; experiment: Competition ELISA, antiserum affinity for its own peptide antigen; design: species or system Pseudomonas aeruginosa; details: peptide giving 50% inhibition of antibody binding to PAK pilin; read-out: Antigen I50
PAK wild-type = experiment: Active immunization with peptide, mice, PAK wild-type challenge; assay type: in vivo, Pseudomonas aeruginosa; details: immunized animals (FIG. 7)
Description: as §1

[6] = fold increase (+) or decrease (−) in affinity compared to antiserum 17-01

KCKSDQDPQFIPKGCSK [CS1]
cross-reactivity of the antiserum with P1 (AcP1(126-148)OH): moderate cross-reactivities | cross-reactivity of the antiserum with PAO (AcPAO(128-144)OH [1]): very high cross-reactivities | cross-reactivity of the antiserum with PAK (AcPAK(128-144)OH; antiserum raised to the named peptide): very high cross-reactivities | Colony Forming Units in BAL Fluid ([2]; immunized i.n. & i.p.): 47 CFU (× 10^3)/mL | White Blood Cell Counts in BAL Fluid, Total Cells ([2]; immunized i.n. & i.p.): 4 (× 10^4)/mL | Colony Forming Units in BAL Fluid ([2]; immunized i.n.): 0 CFU (× 10^3)/mL | White Blood Cell Counts in BAL Fluid, Total Cells ([2]; immunized i.n.): 1 (× 10^4)/mL | Colony Forming Units in BAL Fluid ([2]; immunized i.p.): 5 CFU (× 10^3)/mL | White Blood Cell Counts in BAL Fluid, Total Cells ([2]; immunized i.p.): 28 (× 10^4)/mL | protection after KB7 wild-type challenge (KB7 wild-type): effective in protecting; also recorded: good protection | cross-reactivity of the antiserum with KB7 (AcKB7(128-144)OH): moderate cross-reactivities | protection after P1 wild-type challenge (P1 wild-type): effective in protecting; also recorded: high level of protection

KCKSTQDEMFTPKGCSK [CS4]
protection after P1 wild-type challenge (P1 wild-type): good protection

KCTSDQDEQFIPKGCSK [PAK, reference compound]
cross-reactivity of the antiserum with PAO (AcPAO(128-144)OH [1]): cross-reactive with the native PAO sequence | protection / survival time after PAO wild-type challenge [3]: does not provide protection against PAO challenge

KCTSDQDPQFIPKGCSK [E135P]
cross-reactivity of the antiserum with P1 (AcP1(126-148)OH): not cross-reactive | IC50 (AcP1(126-148)OH; competition ELISA on PAK pili, read-out: I50 for P1): 176 µM | PI A (AcP1(126-148)OH; [6]): +6.9 | KPAK/KPAO (AcPAO(128-144)OH [4]): 11,600 | cross-reactivity of the antiserum with PAO (AcPAO(128-144)OH [1]): not able to effectively bind; also recorded: less cross-reactive than native PAK antiserum; also recorded: less cross-reactive to PAO than PAK peptide | IC50 (AcPAO(128-144)OH [1]; competition ELISA on PAK pili, read-out: I50 for PAO): 4750 µM | PAO A (AcPAO(128-144)OH [1]; [6]): −19.7 | IC50 (AcPAK(128-144)OH; competition ELISA on PAK pili, read-out: I50 for PAK): 0.41 µM | PAK A (AcPAK(128-144)OH; [6]): −2.2 | cross-reactivity of the antiserum with KB7 (AcKB7(128-144)OH): not able to effectively bind; also recorded: not cross-reactive | KB7 A (AcKB7(128-144)OH; [6]): −1.2 | IC50 (AcKB7(128-144)OH; peptide giving 50% inhibition of antibody binding to PAK pilin, read-out: KB7 I50): 835 µM | IC50 [5]: 0.7 µM

KCTSTQDPQFIPKGCSK [CS2]
protection after PAK wild-type challenge (PAK wild-type): very high level of protection | cross-reactivity of the antiserum with PAO (AcPAO(128-144)OH [1]): enhanced cross-reactivity to PAO | protection / survival time after PAO wild-type challenge [3]: complete protection | protection after P1 wild-type challenge (P1 wild-type): high level of protection

KCTSTQDPQFTPKGCSK [CS3]
protection after P1 wild-type challenge (P1 wild-type): high level of protection

Source: patent US20030228324A1, “Peptide compositions and methods of producing and using same” (priority 1999, published 2003)
